Experimental data reported in patent publication US9132131B2, “Use of adenosine A3 receptor agonists for treatment of neuropathic pain” (Saint Louis University, priority 2011, dated 2015).
Several values for one entry are separate records, joined by “and”; a condition that tells them apart may be missing. Equal entries are not always repeated. Where two headings read alike, the source gives them in different places.

Key:
[1] = system: CCI of the sciatic nerve (mechano-allodynia); test: CCI model of neuropathic pain, mechano-allodynia (von Frey PWT); type: in vivo, mice; conditions: for reversal of mechano-allodynia in ipsilateral paws: single dose D7, IB-MECA 0.2-2, CI-IB-MECA 0.6, MRS1898 0.5 μmol/kg i.p., morphine 0.11-35 s.c., gabapentin 18-584 i.p., amitriptyline 3-191 μmol/kg oral; for effect of antagonist pretreatment on anti-allodynic effect of CI-IB-MECA or MRS1898: 15 min before CI-IB-MECA 0.6 or MRS1898 0.5 μmol/kg, DPCPX and SCH-442416 with MRS1898 only; for effect of antagonist pretreatment on anti-allodynic effect of IB-MECA: 15 min before IB-MECA 0.5 μmol/kg, MRS1523 5, DPCPX 2, SCH-442416 0.2 μmol/kg; for effect of antagonist given alone on ipsilateral or contralateral PWT: MRS1523 5, DPCPX 2, SCH-442416 0.2, naloxone 25 μmol/kg; for efficacy of IB-MECA compared with this drug: D7, time of peak reversal (FIG. 7); for ED50: Mus musculus, read-out: ED50, reversal of mechano-allodynia; for time of maximal reversal of mechano-allodynia: after single administration on D7; for ED50 at peak reversal of mechano-allodynia when combined with IB-MECA: co-administered with IB-MECA 0.2 μmol/kg; for fold less potent than IB-MECA in reversing mechano-allodynia: ratio of ED50 values, D7, time of peak reversal
Method: CCI model of neuropathic pain. CCI to the sciatic nerve of the left hind leg in mice was performed under general anaesthesia using the well-characterized Bennett model. Briefly, mice (weighing 25-30 g at the time of surgery) were anesthetized with 3% isoflurane/100% O2 inhalation and maintained on 2% isoflurane/100% O2 for the duration of surgery. The left thigh was shaved, scrubbed with Nolvasan® and a small incision (1-1.5 cm in length) was made in the middle of the lateral aspect of the left thigh to expose the sciatic nerve. The nerve was loosely ligated around the entire diameter of the nerve at three distinct sites (spaced 1 mm apart) using silk sutures (6.0). The surgical site was closed with a single muscle suture and a skin clip. Pilot studies established that under our experimental conditions peak mechano-allodynia develops by day 5-day 7 (D5-D7) following CCI. Test substances or their vehicles were given subcutaneously (s.c.), intraperitoneally (i.p.) or orally by gavage (0.1 ml) at peak mechano-allodynia (D7).
Behavioral testing. […] The plantar aspect of hindpaws were probed three times with calibrated von Frey filaments (Stoelting, mice: 0.07-2.00 grams; rats: 0.407-26 grams) according to the “up-and-down” method. […] Briefly, each rat was placed in a Plexiglas chamber (28×40×35-cm, wire mesh floor) and after its acclimation, a servo-controlled mechanical stimulus was applied to the plantar surface that exerted a progressively increasing punctate pressure up to 50 grams within 10 seconds. Mechanical threshold was assessed three times at each time point to yield a mean value, reported as PWT (grams). […] Mechano-hyperalgesia was assessed in rats by the Randall and Sellitto paw pressure test using an analgesiometer (Ugo Basile). The nociceptive threshold was defined as the force (grams) at which the rat withdrew its paw (cut off set at 250 grams).
Determining ED50 values. Dose response data were curve-fitted using the least sum of square method by a normalized 4-parameter, variable slope non-linear analysis of the % Reversal of Mechano-allodynia in CCI and % Prevention of Mechano-allodynia or Mechano-hyperalgesia in CIPN using GraphPad Prism (Release 5.03, GraphPad Software, Inc.) from which the ED50 was determined and reported with the 95% confidence interval (95% CI). In the CCI model, the % Reversal of Mechano-allodynia=(PWT1h−PWTD7)/(PWTD0−PWTD7)×100, where PWTD0=Paw Withdrawal Threshold (g) at D0, PWT1h=Paw Withdrawal Threshold (g) at 1 hour after the administration of IB-MECA, gabapentin, amitriptyline, or combinations of IB-MECA with gabapentin or amitriptyline, and PWTD7=Paw Withdrawal Threshold (grams) at D7 prior to drug administration.
Statistical Analysis. Data are expressed as mean±SD for n animals. Behavioral data were analyzed by two-way repeated measures ANOVA with Bonferroni comparisons (full time course studies) or one-way ANOVA Dunnett's comparisons (1 hour behavioral data). The dose response curves were compared to a globally fitted curve using the extra sum-of-squares F-test comparisons to determine whether the data represented distinct curves between treatments. Significant differences were defined at a P<0.05. All statistical analysis was performed using GraphPad Prism (v5.03, GraphPad Software, Inc.).

[2] = system: paclitaxel-induced neuropathic pain; test: Paclitaxel-induced neuropathic pain (mechano-allodynia, mechano-hyperalgesia); type: in vivo, rats
A3ARs = conditions: cited from earlier work
[3] = system: SKBR3 breast cancer cells; test: MTT cell survival assay, SKBR3; type: cell-based, human; conditions: 48 hours, MTT, SKBR3
Method: Cells were cultured and assayed in DMEM (SKBR3; human breast cancer cells), L15 (SW480; human colon cancer cells) or RPMI […] (RPMI 8226; human multiple myeloma cells) supplemented with heat-denatured 10% FBS and penicillin/streptomycin at 37° C., 0% (SW480) or 5% CO2 (SKBR3 and RPMI 8226), 95% humidity. The antitumor activities of these agents were measured in cells (6.25×10^4 cells/well) cultured overnight in 24-well plates (SKBR3 and SW480; BD Biosciences) or 12 mm×7.5 mm culture tubes (RPMI 8226; BD Biosciences) in complete media. […] Two naïve control wells were included as a control for 100% survival. Cell survival was determined using a MTT (3-(4,5-dimethylthiazol-2-yl)-2,5-diphenyltetrazolium bromide) assay adapted from a previously described assay. Cells were incubated with MTT (500 μg/ml) for 75 minutes at 37° C., 0% or 5% CO2, 95% humidity, removing the media and dissolving the tetrazolium crystals in isopropanol. […] The antitumor effects of IB-MECA alone were determined as % Survivability=(A560-570 nm of chemotherapeutic vehicle+IB-MECA)/(mean A560-570 nm of the naïve control wells)×100. The LD50 of each chemotherapeutic agent+IB-MECA or its vehicle was calculated using three-parameter non-linear analysis using % Survivability=(A560-570 nm of chemotherapeutic+IB-MECA or its vehicle)/(mean A560-570 nm chemotherapeutic vehicle+vehicle of IB-MECA)×100. The top and bottom plateaus were constrained using GraphPad Prism v5.03 (GraphPad Software, Inc.).

[4] = cited from earlier work
[5] = system: acute nociception (tail flick latency); test: Tail flick assay for acute nociception; type: in vivo, mice; conditions: IB-MECA, MRS1898 0.5 μmol/kg i.p. at 30, 60, 120 minutes; morphine 35 μmol/kg s.c. positive control
Method: Tail flick and hot plate assay in mice for acute nociception. The tail flick test, which measures latency(s) of tail withdrawal from a noxious radiant heat source (Ugo Basile; model number 37360) was used to measure thermal nociceptive sensitivity in mice with baseline latencies of 3-5 seconds and a cut-off time of 15 seconds to prevent tissue injury. Tail flick latencies were taken before and at 30, 60 and 120 minutes after i.p. injection of IB-MECA, MRS1898 (0.5 μmol/kg) or its vehicle (0.1% DMSO in saline). For the hot plate test, nociceptive thresholds were determined as previously reported by our group by measuring latencies (in seconds) of mice placed in a transparent glass cylinder on a hot plate maintained at 52° C.. Responses indicative of nociception included intermittent lifting and/or licking of the hindpaws or escape behavior. Hot plate latencies were taken in mice from all groups before and after drug administration. A cut-off latency of 15 seconds was employed to prevent tissue damage.

[6] = co-administered IB-MECA 0.2 μmol/kg, D7

## CNC(=O)[C@H]1O[C@@H](n2cnc3c(NCc4cccc(I)c4)nc(Cl)nc32)[C@H](O)[C@@H]1O [CI-IB-MECA, 2-chloro-N^6-(3-iodobenzyl)-adenosine-5′-N-methyluronamide]
[1]; D7 after CCI, drug alone
  effect on PWT in contralateral paws: had no effect
[1]
  reversal of mechano-allodynia in ipsilateral paws: reversed mechano-allodynia
[2]; 0.2 μmol/kg/d (not shown)
  effect on paclitaxel-induced neuropathic pain: completely blocked

## CCCn1c(=O)c2[nH]c(C3CCCC3)nc2n(CCC)c1=O [DPCPX, 8-cyclopentyl-1,3-dipropylxanthine]
[1]
  effect of antagonist pretreatment on anti-allodynic effect of CI-IB-MECA or MRS1898: did not prevent
  effect of antagonist pretreatment on anti-allodynic effect of IB-MECA: not affected
[1]; D7
  effect of antagonist given alone on ipsilateral or contralateral PWT: lacked effect

## CCCOC(=O)c1c(-c2ccccc2)nc(CC)c(C(=O)SCC)c1CCC [MRS1523, 3-propyl-6-ethyl-5[(ethylthio)carbonyl]-2-phenyl-4-propyl-3-pyridine-carboxylate]
[1]
  effect of antagonist pretreatment on anti-allodynic effect of CI-IB-MECA or MRS1898: blocked
  effect of antagonist pretreatment on anti-allodynic effect of IB-MECA: prevented
[1]; D7
  effect of antagonist given alone on ipsilateral or contralateral PWT: lacked effect
A3ARs
  selectivity against A1AR: moderate selectivity
  selectivity against A2AAR and A2BAR: at least 1000 fold
A3ARs; murine and rat
  binding to A3ARs: high affinity
[2]; IB-MECA 0.2 μmol/kg/d in any of the chemotherapy models, MRS1523 5 μmol/kg/d
  effect on PWT when administered alone (vehicle groups): lacked effect
[2]; MRS1523 5 μmol/kg/d with IB-MECA 0.2 μmol/kg/d
  effect of co-administered antagonist on the effects of IB-MECA: prevented

## CC(=O)O[C@H]1C(=O)[C@@]2(C)[C@H]([C@H](OC(=O)c3ccccc3)[C@]3(O)C[C@H](OC(=O)[C@H](O)[C@@H](NC(=O)c4ccccc4)c4ccccc4)C(C)=C1C3(C)C)[C@]1(OC(C)=O)CO[C@@H]1C[C@@H]2O [Paclitaxel]
[3]
  LD50: 7.0 nM

## COc1ccc(CCCn2ncc3c2nc(N)n2nc(-c4ccco4)nc32)cc1 [SCH-442416, 2-(2-furanyl)-7-[3-(4-methoxyphenyl)propyl]-7Hpyrazolo[4,3-e][1,2,4]triazolo[1,5-C]pyrimidin-5-amine]
[1]
  effect of antagonist pretreatment on anti-allodynic effect of CI-IB-MECA or MRS1898: did not prevent
  effect of antagonist pretreatment on anti-allodynic effect of IB-MECA: not affected
[1]; D7
  effect of antagonist given alone on ipsilateral or contralateral PWT: lacked effect

## CN(C)CCC=C1c2ccccc2CCc2ccccc21 [amitriptyline]
[1]
  efficacy of IB-MECA compared with this drug: equiefficacious
  ED50: 31 µmol/kg
  time of maximal reversal of mechano-allodynia: 1 h
  fold less potent than IB-MECA in reversing mechano-allodynia: > 75 fold and 75 fold
  reversal of mechano-allodynia in ipsilateral paws: dose-dependent reversal of mechano-allodynia
[1]; D7 after CCI, drug alone
  effect on PWT in contralateral paws: had no effect
[1]; [6]
  increase of potency by IB-MECA: 2 fold
[1]; mice, D7 after CCI
  ED50 at peak reversal of mechano-allodynia when combined with IB-MECA: 13 µmol/kg

## N.N.O=C([O-])C1(C(=O)[O-])CCC1.[Pt+2] [carboplatin]
[4]; subjects receiving the drug
  incidence of CIPN: 40%

## N.N.[Cl][Pt][Cl] [cisplatin]
[4]; in vivo
  incidence of CIPN: 70-90%

## CC(=O)O[C@@]12CO[C@@H]1C[C@H](O)[C@@]1(C)C(=O)[C@H](O)C3=C(C)[C@@H](OC(=O)[C@H](O)[C@@H](NC(=O)OC(C)(C)C)c4ccccc4)C[C@@](O)([C@@H](OC(=O)c4ccccc4)[C@H]21)C3(C)C [docetaxel]
[4]; subjects receiving the drug
  incidence of CIPN: 60%

## NCC1(CC(=O)O)CCCCC1 [gabapentin, 2-[1-(aminomethyl)cyclohexyl]acetic acid]
[1]
  efficacy of IB-MECA compared with this drug: equiefficacious
  ED50: 140 µmol/kg
  time of maximal reversal of mechano-allodynia: 1 h
  fold less potent than IB-MECA in reversing mechano-allodynia: > 350 fold
  reversal of mechano-allodynia in ipsilateral paws: dose-dependent reversal of mechano-allodynia
[1]; D7 after CCI, drug alone
  effect on PWT in contralateral paws: had no effect
[1]; [6]
  increase of potency by IB-MECA: > 5 fold
[1]; mice, D7 after CCI
  ED50 at peak reversal of mechano-allodynia when combined with IB-MECA: 27 µmol/kg

## CN1CC[C@]23c4c5ccc(O)c4O[C@H]2[C@@H](O)C=C[C@H]3[C@H]1C5 [morphine]
[1]
  efficacy of IB-MECA compared with this drug: more efficacious
  ED50: 2.1 µmol/kg
  time of maximal reversal of mechano-allodynia: 0.5 h
  fold less potent than IB-MECA in reversing mechano-allodynia: > 5 fold and 5 fold
  reversal of mechano-allodynia in ipsilateral paws: dose-dependent reversal of mechano-allodynia
[1]; D7 after CCI, drug alone
  effect on PWT in contralateral paws: not in contralateral paws
[1]; [6]
  enhancement of efficacy by IB-MECA: 1.6 fold
  increase of potency by IB-MECA: > 2 fold
[1]; mice, D7 after CCI, drug alone
  Emax, reversal of mechano-allodynia: 62±3%
[1]; mice, D7 after CCI
  ED50 at peak reversal of mechano-allodynia when combined with IB-MECA: 0.98 µmol/kg
[5]
  effect on tail flick latency: significant (P<0.001) increase in tail flick latencies

## C=CCN1CC[C@]23c4c5ccc(O)c4O[C@H]2C(=O)CC[C@@]3(O)[C@H]1C5 [naloxone]
[1]; D7
  effect of antagonist given alone on ipsilateral or contralateral PWT: did not affect
[1]; naloxone 25 μmol/kg i.p. 15 minutes before IB-MECA or MRS1898 0.5 μmol/kg
  effect of naloxone on reversal of mechano-allodynia by A3AR agonists: did not interfere
